# Experimental data published in patent US9867794B2, “Regulation of osteopontin” (Pathologica LLC, priority 2007, dated 2018).
# Values joined by “and” are separate entries in the source; they are usually repeats but may differ in a detail not shown here. Identical values can stand only once.
# How the values were obtained:
# [1] = test system: CD14+ macrophages; CD16+/CD14− cells; test: Phenotypic analysis of cells targeted by MGBG; assay type: cell-based; conditions: increasing concentrations of MGBG
# Experimental: (§1) Additionally, cells being targeted by MGBG were investigated. […] To elucidate the effects of MGBG and OPN on cell motility, migration assays were conducted. MGBG at 10 μM inhibited macrophage Osteopontin production from >200 ng/mL to nondetectable levels while simultaneously inhibiting HeLa cell invasion into a Matrigel matrix.
# SGNE1 = test: Microarray analysis of mononuclear cells, SGNE1; assay type: cell-based, human; conditions: for SGNE1 signal +, Average: 10 μM MGBG
# Experimental: Blood samples were obtained from HIV infected patients (N=9) with positive viral load and reduced CD4 counts, and non-HIV infected, healthy controls (N=6). Blood was collected into heparin anticoagulant tubes and mononuclear cells were isolated by Percoll gradient centrifugation. The cells from each sample were split into 2: one-half receives MGBG at concentration of 10 μM and the other half received no treatment. All samples were then cultured overnight in RPMI media with 10% fetal bovine serum at 37° C. under non-adherent conditions. The next day cells were collected by centrifugation, washed one time with PBS, and lysed by resuspension in TRIZOL, and total RNA was prepared according to manufacturer's instructions (Invitrogen, Carlsbad, Calif.). […] The RNA was then amplified for microarray analysis using a 2 cycle amplification protocol according to the manufacturer's instructions (Affymetrix, Santa Clara, Calif.). The amplified RNAs were then hybridized to Human Genome U133 plus 2.0 microarrays (Affymetrix) and expression data was obtained using an Affymetrix scanner and GCOS protocols. Microarray data was analyzed with GeneSpring Microarray Suite. Results were normalized using a set of 100 probe sets determined by the manufacturer to have relatively invariant expression across most cell types.
# LILRA1 = test: Quantitative RT-PCR, unsorted mononuclear cells, LILRA1; assay type: cell-based, human
# Experimental: (§2) To evaluate the effect of MGBG on gene expression, blood samples were obtained from patients (N=18, 10 HIV-infected and 8 Healthy Controls). Mononuclear cells were isolated via Percoll gradient centrifugation. The cells were split into two tubes, one treated with 10 μM of MGBG and the other non-treated. The cells were then cultured overnight in RPMI media plus 10% fetal bovine serum at 37 C under non-adherent conditions, collected, lysed using Trizol solution, and total RNA prepared according to manufacturer's instructions (Invitrogen, Carlsbad, Calif.).
# (§3) Approximately 200 ng of total RNA prepared from each sample was converted to cDNA using the First Strand cDNA Synthesis Kit for RT-PCR [AMV] kit (Roche Applied Diagnostics, Indianapolis, Ind.) according to manufacturer's instructions. Around 5 ng of cDNA sample was then used for PCR performed on a LightCycler (Roche Applied Diagnostics, Indianapolis, Ind.) using the LightCycler FastStart DNA Master SYBR Green I kit. PCR conditions are as follows: 1 cycle of denaturation at 95° C. for 10 minutes, followed by 45 cycles of 95° C. for 10 seconds, 68° C. for 10 seconds, and 72° C. for 16 seconds.
# (§4) The sequences of gene-specific primers evaluated are listed below. All samples were also amplified with the human β-actin LightCycler-Primer set (Roche Diagnostics).
# SIVmac251 = test: SIV-infected, CD8-depleted rhesus macaques treated with MGBG: disease; assay type: in vivo
# Experimental: These monkeys were then treated with MGBG as described.
# OPN protein = test: OPN production inhibition assay in un-stimulated PBMC cultures, OPN protein; assay type: cell-based; conditions: 10 μM
# Experimental: 10 μM of each drug was added to un-stimulated PBMC cultures at time=0 and cells were harvested 1,3, and 6 days later for quantitative OPN RNA and protein production analysis.
# CD14 = test: QRT-PCR in CD14/CD16-separated cell fractions, CD14 RNA; assay type: cell-based, human; conditions: CD14/CD16++ macrophages, 10 μM MGBG, p=0.02
# Experimental: The changes induced by MGBG in different blood cell types were determined for osteopontin and adenosine deaminase and 7 other genes. For this experiment, blood samples were obtained from 6 healthy controls (3 men/3 women from 20 to 55 years of age) and mononuclear cells were isolated via Percoll gradient centrifugation. The cells were then incubated for 3 hours in RPMI media plus 10% fetal bovine serum at 37 C. At that point MGBG was added to 10 μM to half of each sample and then the cells were incubated at 37 C for 20 more hours. The cells were then bound to magnetic beads coated with antibodies to human CD16. Bound cells (CD16 expressing) were separated from unbound cells using an AutoMACs according to manufacturer's instructions (Miltenyi, Auburn Calif.). Then CD16+ cells are released from the magnetic beads and both the CD16+ and CD16− cells are combined with magnetic beads coated with antibodies to human CD14. Antibody bound and unbound cells were then separated using the AutoMACs machine. […] Cells that neither express CD16 nor CD14 (the −/− Cells). This is mostly T lymphocytes; 2. Cells that only express CD16. This includes contaminating granulocytes not removed by Percoll centrifugation and CD16+ monocytes with very low CD14 expression; 3. […] After separation, cells of each fraction are washed with PBS and the number of viable cells determined by trypan blue exclusion. […]
# HeLa cell = test: Migration assay, HeLa cell invasion into a Matrigel matrix; assay type: cell-based; conditions: 10 μM MGBG
# Experimental: as §1
# IL24 = test: Quantitative RT-PCR, unsorted mononuclear cells, IL24; assay type: cell-based, human
# Experimental: as §2, §3, §4
# NBS1 = test: Quantitative RT-PCR, unsorted mononuclear cells, NBS1; assay type: cell-based, human
# Experimental: as §2, §3, §4
# [2] = 10 μM MGBG overnight, individual samples
# [3] = 10 μM MGBG, all unsorted samples
smiles,measurement,setting,value
"CC(/C=N/NC(=N)N)=N\NC(=N)N [MGBG, 1,1′ [methylethanediylidene]dinitrilodiguanidine]",levels of CD16+/CD14− cells,[1],did not affect
same,yields of CD14+ macrophages,[1],decreasing yields
same,"SGNE1 signal +, Average",SGNE1; average of HIV samples,23
same,"SGNE1 signal +, Average","SGNE1; average of control samples (C6-, M6-177)",13
same,"SGNE1 fold change, ON/MGBG ratio (down-regulation)","SGNE1; 10 μM, individual donor samples",3.3 fold and 7.4 fold and 1.9 fold and 14.4 fold and 53.3 fold and 4.7 fold and 9.3 fold and 58.8 fold and 2.4 fold and 3.0 fold and 45.5 fold and 159.8 fold and 10.1 fold and 63 fold and 0.8 fold
same,samples with 2 fold or greater reductions in SGNE1 signal,SGNE1; of the 15 samples evaluated,13
same,SGNE1 signal +,"SGNE1; presence of 10 μM MGBG overnight, individual donor samples",17 and 7 and 10 and 13 (3×) and 12 and 2 (2×) and 3 and 45 and 14 and 8 and 79 and 44
same,Fold change LILRA1 by QRT-PCR,LILRA1; [2],−1.91 fold and 1.01 fold and −3.10 fold and 1.31 fold and −2.87 fold and 1.52 fold and −3.97 fold and −2.27 fold and 1.11 fold and 1.34 fold and −4.79 fold and −1.31 fold and 1.28 fold and 13.45 fold
same,LILRA1 AVERAGE,"LILRA1; 10 μM MGBG, all samples",1.71 fold
same,LILRA1 MAX,"LILRA1; 10 μM MGBG, all samples",13.45 fold
same,LILRA1 MIN,"LILRA1; 10 μM MGBG, all samples",−4.79 fold
same,SIV-associated macrophages in the frontal cortex,"SIVmac251; 4 doses of MGBG, compared to non-treated",absence of SIV-associated macrophages
same,macrophage infiltration in brains,"SIVmac251; FIG. 9, treated infected macaques",no pathology was observed
same,illness (AIDS and dementia),"SIVmac251; both trials, treated animals",none of the treated animals became ill
same,SIVE or DRG infiltration,"SIVmac251; first trial, 200, 300, 400 mg/m^2 weekly, 2 treated animals",no indications of SIVE or DRG infiltration
same,SIV disease,"SIVmac251; second trial, bi-weekly 250 mg/m^2, 2 treated animals",no evidence for SIV disease
same,OPN protein production,OPN protein,Complete inhibition
same,CD14 RNA median signal relative to no MGBG,CD14,0.55
same,HeLa cell invasion into a Matrigel matrix,HeLa cell,inhibiting
same,Fold change IL24 by QRT-PCR,"IL24; 10 μM MGBG overnight, untreated vs treated, negative = fold reduction, individual samples",5.35 fold and 1.20 fold and 1.09 fold and −1.13 fold and 1.12 fold and 11.88 fold and 2.57 fold and 2.55 fold and 2.25 fold and 1.01 fold and −1.17 fold and 1.92 fold and 1.32 fold and 1.79 fold and 2.50 fold and −2.41 fold and −1.48 fold and −1.30 fold
same,"Fold change IL24, AVERAGE",IL24; [3],1.6 fold
same,"Fold change IL24, MAX",IL24; [3],11.9 fold
same,"Fold change IL24, MIN",IL24; [3],−2.4 fold
same,IL24 % >2 fold Changed,"IL24; share of samples, 10 μM MGBG",33%
same,IL24 regulation by MGBG,IL24; unsorted samples,did not exhibit a consistent pattern of change
same,Fold change NBS1 by QRT-PCR,NBS1; [2],1.68 fold and 1.25 fold and 1.35 fold and −1.56 fold and 2.07 fold and 3.51 fold (2×) and −1.09 fold and 1.04 fold and 4.08 fold and 2.31 fold and 1.14 fold and 1.27 fold and −4.35 fold and −8.51 fold and −2.51 fold and −1.89 fold and 3.63 fold
same,NBS1 AVERAGE,"NBS1; 10 μM MGBG, all samples",1.65 fold
same,NBS1 MAX,"NBS1; 10 μM MGBG, all samples",4.08 fold
same,NBS1 MIN,"NBS1; 10 μM MGBG, all samples",−8.51 fold
